Converted amounts (≈) assume the structure as drawn.
Experiments:
[1] = system: established methicillin-resistant S. epidermidis biofilm (ATCC 35984, NRS 101); test: Microtiter dish biofilm eradication assay (crystal violet); format: cell-based, Staphylococcus epidermidis; details: 24 h
Procedure: We used S. epidermidis ATCC 35984 (NRS 101), a high-slime producer isolated in septicemic patients, with colonized intravascular catheters from Tennessee, USA [10]. This strain is a multi-drug resistant strain, showing resistance to methicillin, erythromycin, kanamycin, gentamicin, clindamycin and trimethoprim. Briefly, an overnight culture of biofilm—producing MRSE was diluted 1:100 in a fresh medium containing 1% glucose in a 96-well tissue-culture treated plate. Bacteria were incubated at 37°C for 24 h to permit the formation of an adherent biofilm. The medium was removed and the biofilm was washed with PBS. Antibacterial drugs (vancomycin and linezolid) and rhodanine 2, at indicated concentration, were added and incubated again at 37°C for 24 h. Plates were washed again and biofilms were stained with 0.1% (wt/vol) crystal violet. Plates were washed with PBS, air-dried and biofilm mass was dissolved using 95% ethanol. The intensity of crystal violet was measured using a micro plate reader (SpectraMax i3x; Molecular Devices, Sunnyvale, CA, USA). Data are presented as the percent biofilm mass reduction in treated groups in relation to untreated wells.

[2] = system: Staphylococcus epidermidis; test: Broth microdilution MIC, Staphylococcus epidermidis; format: cell-based

CC(=O)NC[C@H]1CN(c2ccc(N3CCOCC3)c(F)c2)C(=O)O1 [Linezolid, linezolid, reference compound]
biofilm mass reduction ([1]; high concentrations (up to 8 X MIC)): not significantly decreased

O=C(O)[C@H](Cc1ccccc1)N1C(=O)/C(=C/c2cccc(-c3ccc(Cl)c(Cl)c3)c2)SC1=S [Rh 2]
biofilm mass reduction ([1]; at 4 times its MIC, relative to untreated wells): more than 35%
biofilm mass reduction ([1]; at 8 times its MIC, relative to untreated wells): > 45%
MIC [2]: 4 µM (≈ 2.06 µg/mL)

From article PMC5053523, “In Vitro Antibacterial Activity of Rhodanine Derivatives against Pathogenic Clinical Isolates” (PLoS ONE, 2016)
